Experiments:
hNaV1.6-N1768D = biological target: T1, hNaV1.6-N1768D (Homo sapiens, UniProt Q9UQD0, N1768D); experiment: Voltage ramp activated sodium current (Ramp INa), PatchXpress, HEK-293; format: cell-based; details: HEK293; percent inhibition of enhanced ramp current at 1 μM; +600 mv/sec ramp from −100 mV to +20 mV
T1 construct: expressed in transfected cells; host or cells: HEK-293
Description: (§1) Functional characterization of exemplary compounds to modulate INa expressed by various human isoforms and disease-causing mutant voltage-gated sodium channels was accomplished using the PatchXpress high throughput electrophysiology platform (Molecular Devices, Sunnyvale, Calif.). HEK-293 cells expressing a recombinant, human NaV1.X sodium channel (either hNaV1.6-WT, hNaV1.6-R223G, hNaV1.6-N984K, hNaV1.6-N1768D, hNaV1.1-WT, hNaV1.2-WT, hNaV1.5-WT, hNaV1.7-WT, or hNaV1.8-WT) were grown in DMEM/high-glucose Dulbecco's modified, 10% FBS, 2 mM sodium pyruvate, 10 mM HEPES and 400 μg/mL G418. Cells were grown to 50%-80% confluency prior to harvesting. Trypsinized cells were washed, allowed to recover for 1 hour and then resuspended in extracellular recording solution at a concentration of 1×10^6 cells/ml. The onboard liquid handling facility of the PatchXpress was used for dispensing cells and applying test compounds. INa amplitude and stability were determined by analyzing the peak current amplitude.
(§2) The Nav1.6 mutant channels (hNaV1.6-R223G, hNaV1.6-N984K, hNaV1.6-N1768D) express an enhanced sodium current in response to a ramp voltage depolarization when compared to the wild-type hNaV1.6-WT. This enhanced, depolarizing ramp current is thought to contribute to enhanced neuronal excitability. The degree of block with exemplary compounds (e.g., as described herein) was measured using a +600 mv/sec voltage ramp from −100 mV to +20 mV. The ramp current was defined as the area of the current measured between −55 mV and +15 mV. Following steady state block with exemplary compounds (e.g., as described herein) at 1 μM, a Na^+ free solution containing an impermeant cation (e.g., Choline or NMDG) was added for determination of the baseline current level for offline subtraction. Percent inhibition of enhanced ramp current was calculated as (compound−baseline)/(control−baseline)*100, where control represents the ramp current recorded in the absence of compound. In this table, “A” indicates inhibition between less than 0% to 50% and “B” indicates inhibition of greater than 50% and N/A indicates the compound was not tested.

hNaV1.6-R223G = biological target: T2, hNaV1.6-R223G (Homo sapiens, UniProt Q9UQD0, R223G); experiment: as above; format: cell-based; details: HEK293; percent inhibition of enhanced ramp current at 1 μM; +600 mv/sec ramp from −100 mV to +20 mV
T2 construct: expressed in transfected cells; host or cells: HEK-293
Description: as §1, §2

hNaV1.6-N984K = biological target: T3, hNaV1.6-N984K (Homo sapiens, UniProt Q9UQD0, N984K); experiment: as above; format: cell-based; details: HEK293; percent inhibition of enhanced ramp current at 1 μM; +600 mv/sec ramp from −100 mV to +20 mV
T3 construct: expressed in transfected cells; host or cells: HEK-293
Description: as §1, §2

[1] = biological target: T4, human NaV 1.2 (h NaV 1.2) (Homo sapiens, UniProt Q99250); experiment: Modulation of late sodium current (INaL), PatchXpress electrophysiology, HEK-293 cells expressing hNaV1.2; format: cell-based; details: HEK293, read-out: NaV 1.2 Assay Data: percent inhibition of INaL at hNaV1.2
T4 construct: expressed in transfected cells; host or cells: HEK-293

human NaV1.6 (hNaV1.6) = biological target: T5, human NaV1.6 (hNaV1.6) (Homo sapiens, UniProt Q9UQD0); experiment: Modulation of late sodium current (INaL), PatchXpress electrophysiology, HEK-293 cells expressing hNaV1.6; format: cell-based; details: HEK293, late current evoked by 300 nM ATX-II, read-out: NaV 1.6 Assay Data: percent inhibition of INaL at hNaV1.6
T5 construct: expressed in transfected cells; host or cells: HEK-293
In short: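 PatchXpress automated patch clamp on HEK-293 cells expressing recombinant hNaV1.6; late current enhanced with 300 nM ATX-II. INaL evoked by 200 ms steps to 0 mV from about −120 mV at 0.1 Hz, measured as mean amplitude over the final 20 ms. Percent steady-state inhibition versus control current.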

hNaV1.6-WT = biological target: T6, hNaV1.6-WT (Homo sapiens, UniProt Q9UQD0); experiment: Voltage step activated sodium current (Peak INa), PatchXpress, HEK-293; format: cell-based; details: HEK293; percent inhibition measured at 1 μM; step to 0 mV from half-inactivation holding potential
T6 construct: expressed in transfected cells; host or cells: HEK-293
Description: as §1
(§3) Peak INa was evoked by depolarizing steps to 0 mV for 20 ms from a holding potential which evoked half-inactivation (e.g., −60 mV) at a frequency of 0.1 Hz. The voltage of half-inactivation was determined for each cell using a 5 sec prepulse to membrane potentials between −120 mV and −20 mV followed immediately by a voltage step to a fully activating membrane voltage (e.g., 0 mV). Following steady state block with exemplary compounds (e.g., as described herein), the degree of inhibition was measured using the average of three consecutive voltage steps. Percent steady-state inhibition of INa was calculated as: [(INa_compound)/(INa_control)]*100, where INa_compound and INa_control represent INa recorded in the presence or absence of compound, respectively.
(§4) In this table, “A” indicates inhibition between less than 0% to 50% and “B” indicates inhibition of greater than 50% and N/A indicates the compound was not tested.

hNaV1.1-WT = biological target: T7, hNaV1.1-WT (Homo sapiens, UniProt P35498); experiment: as above; format: cell-based; details: percent inhibition measured at 1 μM; step to 0 mV from half-inactivation holding potential
T7 construct: expressed in transfected cells; host or cells: HEK-293
Description: as §1, §3, §4

hNaV1.7-WT = biological target: T8, hNaV1.7-WT (Homo sapiens, UniProt Q15858); experiment: as above; format: cell-based; details: HEK293; percent inhibition measured at 1 μM; step to 0 mV from half-inactivation holding potential
T8 construct: expressed in transfected cells; host or cells: HEK-293
Description: as §1, §3, §4

hNaV1.5-WT = biological target: T9, hNaV1.5-WT (Homo sapiens, UniProt Q14524); experiment: as above; format: cell-based; details: HEK293; percent inhibition measured at 1 μM; step to 0 mV from half-inactivation holding potential
T9 construct: expressed in transfected cells; host or cells: HEK-293
Description: as §1, §3, §4

hNaV1.2-WT = biological target: T10, hNaV1.2-WT (Homo sapiens, UniProt Q99250); experiment: as above; format: cell-based; details: percent inhibition measured at 1 μM; step to 0 mV from half-inactivation holding potential
T10 construct: expressed in transfected cells; host or cells: HEK-293
Description: as §1, §3, §4

hNaV1.8-WT = biological target: T11, hNaV1.8-WT (Homo sapiens, UniProt Q9Y5Y9); experiment: as above; format: cell-based; details: HEK293; percent inhibition measured at 1 μM; step to 0 mV from half-inactivation holding potential
T11 construct: expressed in transfected cells; host or cells: HEK-293
Description: as §1, §3, §4

Male CD-1 mice = experiment: Maximal Electroshock induced Seizure (MES) assay in mice; format: in vivo, mouse; details: 35% HPCD, recorded up to 60 seconds post stimulus
Description: Male CD-1 mice, weighing 25-35 g were assessed in the Maximal Electroshock induced Seizure (MES) assay. Briefly, mice were dosed with compound (n=12/group) according to the dosing parameters in Table 20 and the latency to induce tonic hind limb extension following transauricular electrical stimulation (50 Hz, 50 mA, 0.8 sec duration, pulse width of 10 ins) was recorded up to 60 seconds post stimulus.

[2] = 1 mg/kg PO, pre-treatment 30 min
[3] = 3 mg/kg PO, pre-treatment 30 min
[4] = 10 mg/kg PO, pre-treatment 30 min

T10 sequence (Q99250 whole entry): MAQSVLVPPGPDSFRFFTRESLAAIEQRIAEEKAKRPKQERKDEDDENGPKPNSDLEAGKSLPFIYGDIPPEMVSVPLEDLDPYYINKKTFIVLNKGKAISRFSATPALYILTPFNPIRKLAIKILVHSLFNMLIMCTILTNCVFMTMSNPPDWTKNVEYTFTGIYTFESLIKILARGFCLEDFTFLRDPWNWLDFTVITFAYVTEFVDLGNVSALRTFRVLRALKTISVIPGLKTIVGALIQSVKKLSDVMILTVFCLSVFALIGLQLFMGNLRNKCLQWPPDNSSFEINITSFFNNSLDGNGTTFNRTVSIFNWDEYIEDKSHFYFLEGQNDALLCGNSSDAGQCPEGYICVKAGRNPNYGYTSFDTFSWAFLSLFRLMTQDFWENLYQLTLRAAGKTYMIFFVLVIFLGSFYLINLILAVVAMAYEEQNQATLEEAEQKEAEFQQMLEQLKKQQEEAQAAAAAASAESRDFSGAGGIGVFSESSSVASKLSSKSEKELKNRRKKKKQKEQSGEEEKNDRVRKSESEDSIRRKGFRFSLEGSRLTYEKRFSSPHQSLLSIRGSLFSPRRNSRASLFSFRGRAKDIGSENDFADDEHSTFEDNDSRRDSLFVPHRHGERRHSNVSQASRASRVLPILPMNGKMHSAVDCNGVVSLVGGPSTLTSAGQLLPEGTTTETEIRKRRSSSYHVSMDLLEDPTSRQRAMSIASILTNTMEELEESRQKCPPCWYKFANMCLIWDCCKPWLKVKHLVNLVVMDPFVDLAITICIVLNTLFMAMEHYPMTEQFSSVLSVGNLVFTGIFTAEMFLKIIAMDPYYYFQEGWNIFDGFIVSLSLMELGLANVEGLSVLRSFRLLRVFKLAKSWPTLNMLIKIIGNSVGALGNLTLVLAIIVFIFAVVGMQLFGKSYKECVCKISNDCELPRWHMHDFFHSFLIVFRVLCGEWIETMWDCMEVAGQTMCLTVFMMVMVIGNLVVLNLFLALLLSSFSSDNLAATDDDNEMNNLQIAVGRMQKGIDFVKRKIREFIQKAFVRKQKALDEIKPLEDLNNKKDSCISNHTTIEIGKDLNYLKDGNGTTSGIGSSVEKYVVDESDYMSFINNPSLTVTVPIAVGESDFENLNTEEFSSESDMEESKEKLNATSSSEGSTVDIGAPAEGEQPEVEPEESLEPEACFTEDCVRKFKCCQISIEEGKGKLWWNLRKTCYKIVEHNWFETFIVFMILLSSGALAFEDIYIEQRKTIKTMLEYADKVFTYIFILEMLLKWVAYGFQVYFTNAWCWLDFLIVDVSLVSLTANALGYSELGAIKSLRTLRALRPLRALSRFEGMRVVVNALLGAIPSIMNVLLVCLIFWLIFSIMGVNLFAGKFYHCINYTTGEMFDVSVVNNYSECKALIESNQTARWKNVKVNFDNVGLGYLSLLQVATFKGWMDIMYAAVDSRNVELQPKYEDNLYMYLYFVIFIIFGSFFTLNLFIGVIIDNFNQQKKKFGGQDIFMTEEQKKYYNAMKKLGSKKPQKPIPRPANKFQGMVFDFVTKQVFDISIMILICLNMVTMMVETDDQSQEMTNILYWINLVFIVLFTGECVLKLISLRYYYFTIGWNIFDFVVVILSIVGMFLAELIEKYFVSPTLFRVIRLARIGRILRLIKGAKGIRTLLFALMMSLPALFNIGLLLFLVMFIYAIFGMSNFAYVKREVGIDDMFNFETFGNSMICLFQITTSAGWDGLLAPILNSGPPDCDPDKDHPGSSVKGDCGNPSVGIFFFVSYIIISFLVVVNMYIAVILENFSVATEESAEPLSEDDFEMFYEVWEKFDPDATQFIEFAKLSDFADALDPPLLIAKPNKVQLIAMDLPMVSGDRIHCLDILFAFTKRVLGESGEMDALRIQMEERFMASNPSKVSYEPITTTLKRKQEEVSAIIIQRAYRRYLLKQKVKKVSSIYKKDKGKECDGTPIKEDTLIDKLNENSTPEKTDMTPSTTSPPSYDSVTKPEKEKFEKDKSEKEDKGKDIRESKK
T4 sequence (Q99250 whole entry): as above
T11 sequence (Q9Y5Y9 whole entry): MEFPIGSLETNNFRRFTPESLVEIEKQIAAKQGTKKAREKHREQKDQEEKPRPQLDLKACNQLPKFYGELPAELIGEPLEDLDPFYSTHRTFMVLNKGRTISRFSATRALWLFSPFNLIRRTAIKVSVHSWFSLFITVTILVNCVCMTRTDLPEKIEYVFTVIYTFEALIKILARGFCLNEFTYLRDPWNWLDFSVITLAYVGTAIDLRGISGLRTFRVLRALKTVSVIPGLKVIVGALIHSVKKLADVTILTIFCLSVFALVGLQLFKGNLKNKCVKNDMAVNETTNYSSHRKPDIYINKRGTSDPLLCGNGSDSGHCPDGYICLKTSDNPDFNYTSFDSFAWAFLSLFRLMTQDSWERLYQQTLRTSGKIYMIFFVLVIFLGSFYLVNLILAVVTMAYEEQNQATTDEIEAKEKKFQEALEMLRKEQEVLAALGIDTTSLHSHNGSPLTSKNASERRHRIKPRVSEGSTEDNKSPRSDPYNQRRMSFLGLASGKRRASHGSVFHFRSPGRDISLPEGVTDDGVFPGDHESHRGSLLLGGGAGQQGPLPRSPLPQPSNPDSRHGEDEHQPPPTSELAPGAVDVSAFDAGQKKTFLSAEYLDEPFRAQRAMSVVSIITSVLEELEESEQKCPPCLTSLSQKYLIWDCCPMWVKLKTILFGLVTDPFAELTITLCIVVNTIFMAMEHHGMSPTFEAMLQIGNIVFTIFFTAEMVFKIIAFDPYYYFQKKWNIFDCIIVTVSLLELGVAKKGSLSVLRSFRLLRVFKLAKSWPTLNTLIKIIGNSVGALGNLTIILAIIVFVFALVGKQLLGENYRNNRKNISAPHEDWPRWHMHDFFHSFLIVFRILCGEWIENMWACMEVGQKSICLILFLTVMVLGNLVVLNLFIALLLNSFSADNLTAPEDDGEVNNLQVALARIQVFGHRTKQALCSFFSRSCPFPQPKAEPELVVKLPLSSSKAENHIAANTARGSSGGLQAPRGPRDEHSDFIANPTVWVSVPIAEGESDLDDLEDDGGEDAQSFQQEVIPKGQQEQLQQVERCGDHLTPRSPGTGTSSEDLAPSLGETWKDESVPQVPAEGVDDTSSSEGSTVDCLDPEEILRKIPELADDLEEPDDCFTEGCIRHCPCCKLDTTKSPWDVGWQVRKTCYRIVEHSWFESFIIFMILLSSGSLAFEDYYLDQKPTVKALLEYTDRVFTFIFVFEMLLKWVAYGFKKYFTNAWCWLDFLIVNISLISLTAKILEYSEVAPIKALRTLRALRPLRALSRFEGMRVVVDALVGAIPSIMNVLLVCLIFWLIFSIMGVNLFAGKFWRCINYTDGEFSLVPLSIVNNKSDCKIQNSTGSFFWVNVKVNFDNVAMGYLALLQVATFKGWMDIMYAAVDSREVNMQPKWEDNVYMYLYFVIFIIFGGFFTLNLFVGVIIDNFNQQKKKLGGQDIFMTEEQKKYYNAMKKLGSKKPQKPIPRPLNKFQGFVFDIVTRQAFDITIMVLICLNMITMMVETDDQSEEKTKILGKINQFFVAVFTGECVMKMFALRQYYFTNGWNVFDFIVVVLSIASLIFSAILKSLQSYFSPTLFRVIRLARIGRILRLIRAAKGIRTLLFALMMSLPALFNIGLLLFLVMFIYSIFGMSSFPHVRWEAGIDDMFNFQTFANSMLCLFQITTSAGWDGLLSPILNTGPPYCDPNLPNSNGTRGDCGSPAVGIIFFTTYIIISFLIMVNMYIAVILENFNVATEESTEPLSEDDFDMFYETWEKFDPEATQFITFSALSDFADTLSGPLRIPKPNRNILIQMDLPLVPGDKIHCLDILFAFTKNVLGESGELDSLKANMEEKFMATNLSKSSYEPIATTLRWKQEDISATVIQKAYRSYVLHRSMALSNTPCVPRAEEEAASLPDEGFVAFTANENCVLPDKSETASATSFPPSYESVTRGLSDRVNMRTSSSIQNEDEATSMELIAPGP

| SMILES | inhibition at 1 µM (hNaV1.6-N1768D) | inhibition at 1 µM (hNaV1.6-R223G) | inhibition at 1 µM (hNaV1.6-N984K) | inhibition at 1 µM [1] | inhibition at 1 µM (human NaV1.6 (hNaV1.6)) | inhibition at 1 µM (hNaV1.6-WT) | hNav1.1 Peak INa (hNaV1.1-WT) | inhibition at 1 µM (hNaV1.7-WT) | hNav1.2 Peak INa (hNaV1.2-WT) | inhibition at 1 µM (hNaV1.8-WT) | inhibition at 1 µM (hNaV1.5-WT) | Mean latency to tonic extension (Male CD-1 mice; [2]) | Mean latency to tonic extension (Male CD-1 mice; [3]) | Mean latency to tonic extension (Male CD-1 mice; 1 mg/kg PO, pre-treatment 120 min) | Mean latency to tonic extension (Male CD-1 mice; 3 mg/kg PO, pre-treatment 120 min) | Mean latency to tonic extension (Male CD-1 mice; [4]) |
| --- | --- | --- | --- | --- | --- | --- | --- | --- | --- | --- | --- | --- | --- | --- | --- | --- |
| CCOC(F)(F)c1nnc2ccc(-c3cnc(OCC(F)(F)F)c(F)c3)nn12 [Compound 16, 3-[ethoxy(difluoro)methyl]-6-[5-fluoro-6-(2,2,2-trifluoroethoxy)-3-pyridyl]-[1,2,4]triazolo[4,3-b]pyridazine] | – | – | – | > 70% | > 70% | – | – | – | – | – | – | – | – | – | – | – |
| COC(F)(F)c1nnc2cnc(-c3cnc(OC4(C(F)(F)F)CCC4)c(F)c3)cn12 [Compound 11, 3-[difluoro(methoxy)methyl]-6-[5-fluoro-6-[1-(trifluoromethyl)cyclobutoxy]-3-pyridyl]-[1,2,4]triazolo[4,3-a]pyrazine] | > 50% | < 50% | > 50% | – | > 70% | > 50% | B (inhibition of greater than 50%) | > 50% | – | > 50% | > 50% | – | – | – | – | – |
| COC(F)(F)c1nnc2cnc(-c3cnc(O[C@@H](C)C(F)(F)F)c(F)c3)cn12 [Compound 6B, 3-[difluoro(methoxy)methyl]-6-[5-fluoro-6-[(1S)-2,2,2-trifluoro-1-methyl-ethoxy]-3-pyridyl]-[1,2,4]triazolo[4,3-a]pyrazine] | > 50% | > 50% | > 50% | – | > 70% | > 50% | B (inhibition of greater than 50%) | > 50% | B (inhibition of greater than 50%) | > 50% | > 50% | – | – | 17.3 s | 50.5 s | – |
| CCOC(F)(F)c1nnc2ccc(-c3cnc(OCC(F)(F)F)c(F)c3)cn12 [Compound 3, 3-[ethoxy(difluoro)methyl]-6-[5-fluoro-6-(2,2,2-trifluoroethoxy)-3-pyridyl]-[1,2,4]triazolo[4,3-a]pyridine] | > 50% | > 50% | > 50% | – | > 70% | > 50% | B (inhibition of greater than 50%) | > 50% | – | > 50% | > 50% | – | 60 s | – | – | 60 s |
| COC(F)(F)c1nnc2cnc(-c3cnc(OCC(F)(F)F)c(F)c3)cn12 [Compound 53, 3-[difluoro(methoxy)methyl]-6-[5-fluoro-6-(2,2,2-trifluoroethoxy)-3-pyridyl]-[1,2,4]triazolo[4,3-a]pyrazine] | > 50% | < 50% | < 50% | > 70% | > 70% | > 50% | B (inhibition of greater than 50%) | > 50% | A (inhibition between less than 0% to 50%) | > 50% | > 50% | 36.4 s | 60 s | – | – | 60 s |

Continued, in another order:

| inhibition at 1 µM (hNaV1.6-N1768D) | inhibition at 1 µM (hNaV1.6-R223G) | inhibition at 1 µM (hNaV1.6-N984K) | inhibition at 1 µM [1] | inhibition at 1 µM (human NaV1.6 (hNaV1.6)) | inhibition at 1 µM (hNaV1.6-WT) | hNav1.1 Peak INa (hNaV1.1-WT) | inhibition at 1 µM (hNaV1.7-WT) | hNav1.2 Peak INa (hNaV1.2-WT) | inhibition at 1 µM (hNaV1.8-WT) | SMILES | inhibition at 1 µM (hNaV1.5-WT) | Mean latency to tonic extension (Male CD-1 mice; [2]) | Mean latency to tonic extension (Male CD-1 mice; [3]) | Mean latency to tonic extension (Male CD-1 mice; 1 mg/kg PO, pre-treatment 120 min) | Mean latency to tonic extension (Male CD-1 mice; 3 mg/kg PO, pre-treatment 120 min) | Mean latency to tonic extension (Male CD-1 mice; [4]) |
| --- | --- | --- | --- | --- | --- | --- | --- | --- | --- | --- | --- | --- | --- | --- | --- | --- |
| > 50% | < 50% | > 50% | > 70% | > 70% | > 50% | B (inhibition of greater than 50%) | > 50% | B (inhibition of greater than 50%) | > 50% | COC(F)(F)c1nnc2cnc(-c3ccc(OC(C)(C)C(F)(F)F)nc3)cn12 [Compound 56, 3-[difluoro(methoxy)methyl]-6-[6-(2,2,2-trifluoro-1,1-dimethyl-ethoxy)-3-pyridyl]-[1,2,4]triazolo[4,3-a]pyrazine] | > 50% | – | – | – | – | – |
| > 50% | < 50% | > 50% | > 70% | > 70% | > 50% | B (inhibition of greater than 50%) | > 50% | B (inhibition of greater than 50%) | > 50% | COC(F)(F)c1nnc2cnc(-c3ccc(O[C@H](C)C(F)(F)F)nc3)cn12 [Compound 62, 3-[difluoro(methoxy)methyl]-6-[6-[(1R)-2,2,2-trifluoro-1-methyl-ethoxy]-3-pyridyl]-[1,2,4]triazolo[4,3-a]pyrazine] | > 50% | 17.6 s | 46.1 s | – | – | – |
| > 50% | > 50% | > 50% | > 70% | > 70% | > 50% | B (inhibition of greater than 50%) | > 50% | B (inhibition of greater than 50%) | > 50% | COC(F)(F)c1nnc2cnc(-c3ccc(O[C@@H](C)C(F)(F)F)nc3)cn12 [Compound 59, 3-[difluoro(methoxy)methyl]-6-[6-[(1S)-2,2,2-trifluoro-1-methyl-ethoxy]-3-pyridyl]-[1,2,4]triazolo[4,3-a]pyrazine] | > 50% | – | – | – | – | – |
| > 50% | < 50% | < 50% | – | > 70% | > 50% | – | > 50% | – | > 50% | COCc1nnc2cnc(-c3cnc(OC(C)(C)C(F)(F)F)c(F)c3)cn12 [Compound 48] | > 50% | – | 42.5 s | – | – | 60 s |

From US11731976B2, “3-(ethoxydifluoromethyl)-6-(5-fluoro-6-(2,2,2-trifluoroethoxy)pyridin-3-yl)-[1,2,4]triazolo[4,3-a]pyridine as an ion channel modulator” (Praxis Precision Medicines, Inc., priority 2018, dated 2023)
